Data published in patent publication US9193717B2, “Mineralocorticoid receptor antagonists” (Merck Sharp & Dohme Corp., priority 2011, dated 2015).

Molecular target: T1, full-length human Mineralocorticoid Receptor (MR) (Homo sapiens, UniProt P08235)
T1 construct: full-length human Mineralocorticoid Receptor (MR); host or cells: PathHunter CHO-K1 cells
T1 sequence (P08235 1-984): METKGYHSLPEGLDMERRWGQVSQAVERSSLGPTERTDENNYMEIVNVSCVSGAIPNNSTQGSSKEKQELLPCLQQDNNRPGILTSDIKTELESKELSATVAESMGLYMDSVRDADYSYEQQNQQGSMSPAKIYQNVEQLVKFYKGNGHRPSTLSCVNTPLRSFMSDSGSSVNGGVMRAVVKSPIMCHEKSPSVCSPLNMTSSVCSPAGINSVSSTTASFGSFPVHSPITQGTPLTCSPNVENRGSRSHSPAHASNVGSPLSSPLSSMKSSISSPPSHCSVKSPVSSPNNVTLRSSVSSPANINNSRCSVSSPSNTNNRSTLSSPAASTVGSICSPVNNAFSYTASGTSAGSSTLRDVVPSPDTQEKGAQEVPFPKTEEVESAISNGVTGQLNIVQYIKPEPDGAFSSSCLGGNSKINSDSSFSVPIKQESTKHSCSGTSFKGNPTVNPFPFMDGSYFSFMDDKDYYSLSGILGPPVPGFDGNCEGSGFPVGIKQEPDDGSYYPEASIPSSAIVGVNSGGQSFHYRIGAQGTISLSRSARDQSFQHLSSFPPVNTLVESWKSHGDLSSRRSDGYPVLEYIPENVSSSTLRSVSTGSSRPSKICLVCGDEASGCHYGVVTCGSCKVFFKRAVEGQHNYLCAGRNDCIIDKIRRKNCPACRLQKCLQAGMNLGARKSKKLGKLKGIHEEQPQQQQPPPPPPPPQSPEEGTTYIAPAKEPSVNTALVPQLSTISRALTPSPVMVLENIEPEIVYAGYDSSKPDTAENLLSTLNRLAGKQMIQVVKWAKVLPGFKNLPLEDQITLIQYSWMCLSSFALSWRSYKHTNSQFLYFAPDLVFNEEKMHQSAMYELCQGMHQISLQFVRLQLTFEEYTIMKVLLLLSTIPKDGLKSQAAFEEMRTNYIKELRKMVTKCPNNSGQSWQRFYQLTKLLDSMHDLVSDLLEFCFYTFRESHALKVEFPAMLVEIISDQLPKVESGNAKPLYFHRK
Assay: human MR NH Pro assay (PathHunter Protein:Protein interaction assay, MR antagonism)
Type: cell-based
Conditions: PathHunter CHO-K1 cells that overexpress human MR; aldosterone (0.3 nM), 6 hours at 37° C.; antagonist mode; read-out: IC50 rating
Procedure: The activity of the compounds of the present invention regarding mineralocorticoid receptor antagonism was evaluated using the following assay.
Assessment of Mr Potency in HMR NH Pro Assay
The human MR NH Pro assay is a commercially available PathHunter™ Protein:Protein interaction assay (DiscoveRx; http://www.discoverx.com/nhrs/prod-nhrs.php) that measures the ability of compounds to antagonize full-length human Mineralocorticoid Receptor (MR) binding to a coactivator peptide. PathHunter™ CHO—K1 cells that overexpress human MR (Cat #93-0456C2, Lot No: 09B0913) were cultured in growth media (F12K w/Glutamine and phenol red (Gibco 11765-047) supplemented with 10% HI FBS (Gibco 16000); 0.25 mg/ml Hygromycin in PBS (Invitrogen 10687-010, 50 mg/ml); 100 I.U./mL and 100 μg/mL Pen/Strep (Gibco 15140-122); 0.6 mg/mL Geneticin).
Compounds were assessed for MR antagonist activity by incubating the cells with a titrating dose of compound in F12K w/Glutamine and phenol red culture media (Invitrogen 11765-047) supplemented with 1% Charcoal/Dextran Treated FBS (Hyclone #SH30068.01) and aldosterone (0.3 nM) for 6 hours at 37° C. […] Growth Media: • F12K w/Glutamine and phenol red (Gibco 11765-047) • 10% HI FBS (Gibco 16000) • 0.25 mg/ml Hygromycin in PBS (Invitrogen 10687-010, 50 mg/ml) • 100 I.U./mL and 100 μg/mL Pen/Strep (Gibco 15140-122) • 0.6 mg/mL Geneticin (Gibco 10131, 50 mg/ml) • 2. Assay Media: • F12K w/Glutamine and phenol red (Invitrogen 11765-047) • 1% Charcoal/Dextran Treated FBS (Hyclone #SH30068.01) • 3. 3× PathHunter Detection Reagents (Cat#93-0001) (need ˜6 ml/plate). […] Control Agonist:Aldosterone:Sigma cat# A9477 • Prepare stock solution-10 μM in DMSO kept at −20° C. • for assay, dilute in assay media to 1.8 or 6 nM (6× of final concentration=about 0.3 nM to about 1.0 nM) • 5. Cell line: PathHunter CHO—K1 MR cells Cat #93-0456C2, Lot No: 09B0913, from operation liquid nitrogen stock. • 6. Control Antagonist:Spironolactone:Sigma #S-3378 and Eplerenone Sigma #107724-20-9 (10 mM stock concentration also prepared in DMSO and stored at −20° C.). • Methods: • Assay Set up and Calculations: • 1. Cells were grown in F12+FBS+Hygromycin+pen/strep+Genetin • 2. Cells were collected with 0.05% trypsin and the cell suspension was spun and resuspended in a volume of F12+1.5% CD-FBS and counted. • 3. The cells were resuspended to 4×10^5 cells/mL. • 4. Cells were (25 μL/well) added to the wells of a 384 well plate. • 5. The plate was then incubated at 37° C. over night in a humidified incubator with 5% CO2. • 6. Test compounds were titrated starting at 4.4 mM, 10-point titration in 1:3 dilution. • 7. Aldosterone was diluted in assay media to 1.8 nM or 6 nM from 10 μM stock (final concentration to be about 0.3 nM to about 1.0 nM). • Protocol for 384 Well Plate Format: 6 Hr Treatment: • 1. Plated 10K exponentially growing cells/well (25 μL) resuspended in assay media to each well using the Multidrop (Thermo Electron) (use white wall, clear bottom assay plates (Costar #3570) and incubate overnight at 37° C., 5% CO2. • 2. 0.25 μL 120× test compound (final DMSO concentration should be <1%) was added to each well n=2, 10 point titrations starting at 36.7 μM final concentration. • 3. 5 μL 6× agonist (final aldosterone concentration should be about 0.3 nM to about 1.0 nM) was added to all wells using the PlateMate Plus.
(ThermoFisher) (except those wells in columns 23 and 24) • 4. 5 μL of assay media was added to all wells in column 23 and 24. • 5. Plates were incubated 6 hrs at 37° C., 5% CO2. • 6. 15 μL 3× DiscoveRx detection reagent was added to each well. • 7. Plates were incubated for 1 hour at room temperature (plates stored in the dark). • 8. Plates were read on Envision (PerkinElmer) luminesence plate reader and analyzed using ADA.

First: C[C@H](c1ccccc1)N1C(=O)N[C@](Cc2ccccc2)(c2nc3ccc(Cl)cc3[nH]2)C1=O (single isomer, unassigned) [Compound 38]
Second: C[C@H](c1ccc(F)cc1)N1C(=O)O[C@](Cc2ccccc2)(c2nc3ccccc3[nH]2)C1=O [Compound 3, (5R)-5-(1H-Benzimidazol-2-yl)-5-benzyl-3-[(1R)-1-(4-fluorophenyl)ethyl]-1,3-oxazolidine-2,4-dione]
The IC50 of the first is higher: 500 to 2000 nM for the first, 100 to 500 nM for the second. The second is the more potent here.

`C[C@H](c1ccc(F)cc1)N1C(=O)O[C@](Cc2ccccc2)(c2nc3cc(Cl)ccc3[nH]2)C1=O` [Compound 1, (5R)-5-Benzyl-5-(5-chloro-1H-benzimidazol-2-yl)-3-[(1R)-1-(4-fluorophenyl)ethyl]-1,3-oxazolidine-2,4-dione] and `C[C@H](c1ccc(F)cc1)N1C(=O)O[C@](Cc2ccccc2)(c2nc3cc(F)ccc3[nH]2)C1=O` [Compound 2, (5R)-5-Benzyl-5-(5-fluoro-1H-benzimidazol-2-yl)-3-[(1R)-1-(4-fluorophenyl)ethyl]-1,3-oxazolidine-2,4-dione] fall in the same range of IC50: 100 to 500 nM for the first, 100 to 500 nM for the second.

First: C[C@H](c1ccc(F)cc1)N1C(=O)O[C@](Cc2ccccc2)(c2nc3cc(OC(F)(F)F)ccc3[nH]2)C1=O [Compound 4, (5R)-5-Benzyl-3-[(1R)-1-(4-fluorophenyl)ethyl]-5-[5-(trifluoromethoxy)-1H-benzimidazol-2-yl]-1,3-oxazolidine-2,4-dione]
Second: C[C@H](c1ccc(F)cc1)N1C(=O)O[C@](Cc2ccccc2)(c2nc3cc(C(F)(F)F)ccc3[nH]2)C1=O [Compound 8, (5R)-5-Benzyl-3-[(1R)-1-(4-fluorophenyl)ethyl]-5-[5-(trifluoromethyl)-1H-benzimidazol-2-yl]-1,3-oxazolidine-2,4-dione]
The IC50 of the first is higher: 100 to 500 nM for the first, < 100 nM for the second. The second is the more potent here.

`COC(=O)c1ccc2nc([C@@]3(Cc4ccccc4)OC(=O)N([C@H](C)c4ccc(F)cc4)C3=O)[nH]c2c1` [Compound 5, Methyl 2-{(5R)-5-benzyl-3-[(1R)-1-(4-fluorophenyl)ethyl]-2,4-dioxo-1,3-oxazolidin-5-yl}-1H-benzimidazole-5-carboxylate] and `CCS(=O)(=O)Nc1ccc2nc([C@@]3(Cc4ccccc4)OC(=O)N([C@H](C)c4ccc(F)cc4)C3=O)[nH]c2c1` [Compound 16, N-(2-{(5R)-5-Benzyl-3-[(1R)-1-(4-fluorophenyl)ethyl]-2,4-dioxo-1,3-oxazolidin-5-yl}-1H-benzimidazol-6-yl)ethanesulfonamide] fall in the same range of IC50: 100 to 500 nM for the first, 100 to 500 nM for the second.

First: C[C@H](c1ccc(F)cc1)N1C(=O)O[C@](Cc2ccccc2)(c2nc3cc(-n4cnnn4)ccc3[nH]2)C1=O [Compound 6, (5R)-5-Benzyl-3-[(1R)-1-(4-fluorophenyl)ethyl]-5-[6-(1H-tetrazol-1-yl)-1H-benzimidazol-2-yl]-1,3-oxazolidine-2,4-dione]
Second: C[C@H](c1ccc(F)cc1)N1C(=O)O[C@](Cc2ccccc2)(c2nc3cc(N4CCOCC4)ccc3[nH]2)C1=O [Compound 9, (5R)-5-Benzyl-3-[(1R)-1-(4-fluorophenyl)ethyl]-5-(5-morpholin-4-yl-1H-benzimidazol-2-yl)-1,3-oxazolidine-2,4-dione]
The IC50 of the first is higher: 100 to 500 nM for the first, < 100 nM for the second.

Compared with `C[C@H](c1ccc(F)cc1)N1C(=O)O[C@](Cc2ccccc2)(c2nc3ccc(CN4CCOCC4)cc3[nH]2)C1=O` [Compound 10, (5R)-5-Benzyl-3-[(1R)-1-(4-fluorophenyl)ethyl]-5-[5-(morpholinylmethyl)-1H-benzimidazol-2-yl]-1,3-oxazolidine-2,4-dione], `C[C@H](c1ccc(F)cc1)N1C(=O)O[C@](Cc2ccccc2)(c2nc3c(Cl)cc(Cl)cc3[nH]2)C1=O` [Compound 19, (5R)-5-Benzyl-5-(4,6-dichloro-1H-benzimidazol-2-yl)-3-[(1R)-1-(4-fluorophenyl)ethyl]-1,3-oxazolidine-2,4-dione] is lower in IC50: 100 to 500 nM for the first, < 100 nM for the second.

`CC(C1CCC(F)(F)CC1)N1C(=O)O[C@](Cc2ccccc2)(c2nc3ccc(Cl)cc3[nH]2)C1=O` (stereo partly drawn) [Compound 11, (5R)-5-Benzyl-5-(6-chloro-1H-benzimidazol-2-yl)-3-[1-(4,4-difluorocyclohexyl)ethyl]-1,3-oxazolidine-2,4-dione] and `C[C@H](C1CCCCC1)N1C(=O)O[C@](Cc2ccccc2)(c2nc3ccc(Cl)cc3[nH]2)C1=O` [Compound 12, (5R)-5-Benzyl-5-(5-chloro-1H-benzimidazol-2-yl)-3-[(1R)-1-cyclohexylethyl]-1,3-oxazolidine-2,4-dione] cannot be ordered by IC50: < 100 nM for the first, < 100 nM for the second.

`O=C1O[C@](Cc2ccccc2)(c2nc3ccc(Cl)cc3[nH]2)C(=O)N1[C@@H]1CCc2ccccc21` [Compound 13, (5R)-5-Benzyl-5-(5-chloro-1H-benzimidazol-2-yl)-3-[(1R)-2,3-dihydro-1H-inden-1-yl]-1,3-oxazolidine-2,4-dione] and `O=C1O[C@](Cc2ccc(F)cc2)(c2nc3ccc(Cl)cc3[nH]2)C(=O)N1[C@@H]1CCc2ccccc21` [Compound 17, 5-(6-Chloro-1H-benzimidazol-2-yl)-3-[(1R)-2,3-dihydro-1H-inden-1-yl]-5-(4-fluorobenzyl)-1,3-oxazolidine-2,4-dione] fall in the same range of IC50: 100 to 500 nM for the first, 100 to 500 nM for the second.

`C[C@H](c1ccc(F)c(F)c1)N1C(=O)O[C@](Cc2ccccc2)(c2nc3ccc(Cl)cc3[nH]2)C1=O` [Compound 15, (5R)-5-Benzyl-5-(6-chloro-1H-benzimidazol-2-yl)-3-[(1R)-1-(3,4-difluorophenyl)ethyl]-1,3-oxazolidine-2,4-dione] and `C[C@H](C1CCCCC1)N1C(=O)O[C@](Cc2ccc(F)cc2)(c2nc3ccc(C#N)cc3[nH]2)C1=O` [Compound 18, 2-{3-[(1R)-1-Cyclohexylethyl]-5-(4-fluorobenzyl)-2,4-dioxo-1,3-oxazolidin-5-yl}-1H-benzimidazole-5-carbonitrile] fall in the same range of IC50: 100 to 500 nM for the first, 100 to 500 nM for the second.
